Laboratory results from publication PMC5841354, “Gomesin peptides prevent proliferation and lead to the cell death of devil facial tumour disease cells” (Cell Death Discovery, 2018).
Where a SMILES comes first, the peptide text is derived from it. Bridges are numbered along the chain shown (N, C = ends). [ ]: non-standard residue; d: D form. pGlu = O=C1CC[C@@H](C(=O)O)N1

Legend:
DFTD4 cells [1] = assay: MTT cell viability, DFTD4 cells; type: cell-based, Tasmanian devil (Sarcophilus harrisii); conditions: 48 h; for anti-proliferative / cytotoxic activity compared with AgGom: DFTD cell lines (DFTD1, DFTD2, DFTD4); for cell viability / anti-proliferative activity in DFTD4 cells: 50 µg/mL
Text: (§1) All DFTD (DFTD1, DFTD2, and DFTD4) and fibroblast (FIBS) cell lines were obtained from the Department of Primary Industries, Parks, Water, and Environment, State Government of Tasmania (DPIPWE) and were established as part of management plan and adhere to a standard operating practice. The DFTD1 cell line with catalogue number 3287 is derived from the tumour from a female devil (tag number: 06/2887) collected at St Marys, Eastern Tasmania in 2006. DFTD2 cell line with catalogue number 8961 was developed from a tumour from a male devil (tag number: 12/0625) collected at Kempton, Northern Tasmania in 2012. The DFTD4 cell line with catalogue number 4099 was developed from the tumour of a male devil (tag number: 07/0192) that was collected at Freycinet, east coast of Tasmania in 2007 and Fibroblasts cells (FIBS) with catalogue number 497 were obtained from a healthy devil male pup (tag number: 05/0962) held at Mount Pleasant, Southeastern of Tasmania in 2005.
(§2) Devil Facial Tumor cancer cell lines, and the control Tasmanian Devil fibroblast (FIBS) healthy cell line were maintained in a humidified incubator at 35 °C and 5% CO2. The DFTD cell lines were cultured in RPMI-1640 medium supplemented with 10% FCS, and 2 mM Glutamax. The FIBS was grown in GIBCO AmnioMAX-C100 Basal Medium liquid, containing AmnioMAX-C100 supplement. Penicillin/streptomycin (PS) (100 U/ml each) was added to both media. The cells were passaged at ~90% confluency. Functional studies were performed with passages up to 20. All cell lines were mycoplasma free.
(§3) Cell viability as an indicator of the number of viable and proliferative cells was measured by MTT according to the protocol of the manufacturer (Sigma-Aldrich, Australia). In brief, 8000 DFTD and 5000 FIBS cells/well were seeded in a 96-flat adherent microtiter well plate for 24 h to allow cell adhesion. Gomesin peptides and/or analogues were then added to the plates to measure MTT reduction. Plates were measured after 48 h at 540 nm absorbance in a microplate reader (BIOTEK PowerWave XS, USA). 0.1% SDS was used as a positive control (100% toxicity). A row of untreated cells was used to define 100% viability and blank wells containing only media were used to extract background. The concentration of gomesin peptides causing 50% inhibition (EC50) in DFTD and FIBS cells was determined using GraphPad Prism Software (Graphpad Inc, USA).

FIBS cells = assay: MTT cell viability, non-transformed fibroblasts (FIBS); type: cell-based, Tasmanian devil (Sarcophilus harrisii); conditions: 48 h; for deleterious effects on FIBS viability: 50 µg/mL
Text: as §1, §2, §3

DFTD4 cells [2] = assay: Cell cycle analysis (PI, flow cytometry); type: cell-based, Tasmanian devil (Sarcophilus harrisii); conditions: 50 μg/mL, 24 h, mean ± SEM, three independent experiments
Procedure: DFTD4 cells were synchronised by removing serum from the medium for ~24 h. Cells were then transferred into medium containing serum and treated with AgGom or HiGom at 50 µg/mL for 24 h. Cells were detached mechanically, washed with PBS and fixed with 70% ethanol for ~1 h at 4 °C. Ethanol was removed by centrifugation (453 g for 5 min) and cells were washed with PBS. Cells were treated with 5 µL of 10 µg/mL ribonuclease A to remove RNA contamination and further incubated for 1 h at 37 °C to allow release of low-molecular weight DNA. Cell pellets were stained with 10 µL of propidium iodide (PI) (1 mg/ml) and analysed at a maximum emission of 605 nm using a LSR Fortessa 5 analyser (BD Biosciences, San Diego, CA, US). Approximately 10,000 events were recorded and data were analysed using FlowJo software v10.06 (FlowJo, US).

DFTD4 cells [3] = assay: Annexin V-FITC/PI apoptosis and necrosis; type: cell-based, Tasmanian devil (Sarcophilus harrisii); conditions: 24 h
Procedure: Apoptosis in DFTD4 cells treated with AgGom or HiGom was measured using an Annexin V-FITC Apoptosis detection kit in combination with a Canto II high-throughput fluorescence-activated cell sorter (BD Biosciences, USA). Briefly, cells were seeded at a density of 100,000 cells/well in a round-bottom 96-well plate and treated with 50 µg/mL AgGom or HiGom for 24 h. The cells were collected mechanically, washed twice with PBS and once with wash buffer provided by the manufacturer. Cells were stained simultaneously with FITC-labelled annexin V and PI for 30 min in the dark and at room temperature before being analysed.

DFTD4 cells [4] = assay: qRT-PCR of cell cycle check-point, pro-survival and apoptosis genes; type: cell-based, Tasmanian devil (Sarcophilus harrisii); conditions: 50 μg/mL, vs. vehicle
Procedure: Total RNA was extracted from both untreated (control) and gomesin-treated DFTD4 cells using an RNeasy kit (Qiagen, Australia) and 1 µg was reverse-transcribed into cDNA using SensiFast (Bioline, UK). Quantitative real time-PCR (qRT-PCR) to quantitate mRNA expression was performed on a LightCycler Instrument (Roche Molecular Biochemicals, Australia) with Tasmanian devil 18S used as the reference (housekeeper) gene. All primers are listed in Supplementary.

DFTD4 cells [5] = assay: Reactive oxygen species (Carboxy-H2DCFDA, flow cytometry); type: cell-based, Tasmanian devil (Sarcophilus harrisii); conditions: 50 μg/mL, 24 h, vs. untreated
Procedure: An Amplex Red Hydrogen Peroxidase assay kit (Invitrogen, Australia) was used to measure reactive oxygen species (ROS) generation in DFTD4 cells. A fluorescence probe that detects intracellular H2O2, Carboxy-H2DCFDA, was added 30 min prior to collecting cells to measure ROS production in DFTD4 cells that were previously treated with gomesin peptides at 50 µg/mL for 24 h. Fluorescent cells were washed twice with PBS prior to analysis on a FACSCalibur flow cytometer (BD Biosciences, USA) using excitation and emission wavelengths of 492 nm and 517 nm, respectively. Approximately 10,000 events were recorded per sample and the readout was analysed using FlowJo software v10.06 (FlowJo, USA).

DFTD4 cells [6] = assay: Mitochondrial membrane potential (Rhodamine 123); type: cell-based, Tasmanian devil (Sarcophilus harrisii); conditions: 50 µg/mL, 24 h, vs. vehicle
Procedure: We measured the mitochondrial membrane potential (MMP) using Rhodamine 123 (Rhod-123) (Sigma-Aldrich, Australia), a cationic dye that is localised in mitochondria. Loss-of-MMP results in loss-of-Rhod-123 fluorescence. Approximately 1 × 10^6 DFTD4 cells treated with AgGom or HiGom at 50 µg/mL for 24 h were collected and resuspended in 0.1 ml of culture medium, stained with 10 µg/mL Rhod-123 for 30 min, and then washed with PBS. The intracellular concentration of Rho123 was determined immediately after by flow cytometry (BD Biosciences, USA) using an excitation wavelength of 488 nm. The data were analysed using FlowJo v10.06 (FlowJo, USA).

DFTD = conditions: human chemotherapeutic agents in Tasmanian devils; cited from earlier work
Text: With no treatment available for DFTD, scientists maintain captive, disease-free breeding populations that are released into the wild. Major research efforts are focused on understanding the molecular mechanisms of DFTD and why tumour cells fail to stimulate an immune response in the Tasmanian Devil, including the dramatic downregulation of the expression of Major Histocompatibility Complex (MHC) Class I genes[5]–[9]. Previous trials to treat DFTD using human chemotherapeutic agents, such as vincristine, doxorubicin, and carboplatin have proven to be unsuccessful[10],[11]. In this study, we pos ...

CC(C)C[C@@H]1NC(=O)[C@H](CCCNC(=N)N)NC(=O)[C@H](CCCNC(=N)N)NC(=O)[C@@H](NC(=O)[C@@H]2CCC(=O)N2)CSSC[C@@H](C(=O)N[C@@H](CCCNC(=N)N)C(=O)NCC(=O)N[C@@H](CCCNC(=N)N)C(N)=O)NC(=O)[C@H](Cc2ccc(O)cc2)NC(=O)[C@H]([C@@H](C)O)NC(=O)[C@H](C(C)C)NC(=O)[C@@H]2CSSC[C@H](NC1=O)C(=O)N[C@@H](Cc1ccc(O)cc1)C(=O)N[C@@H](CCCCN)C(=O)N[C@@H](CC(N)=O)C(=O)N[C@@H](CCCNC(=N)N)C(=O)N2 [AgGomKN] ([pGlu]CRRLCYKNRCVTYCRGR-NH2; disulfide 2-15, 6-11)
anti-proliferative / cytotoxic activity compared with AgGom (DFTD4 cells [1]): higher anti-proliferative activity than AgGom | deleterious effects on FIBS viability (FIBS cells): minimal deleterious effects

CC(C)C[C@@H]1NC(=O)[C@H](CCCNC(=N)N)NC(=O)[C@H](CCCNC(=N)N)NC(=O)[C@@H](NC(=O)[C@@H]2CCC(=O)N2)CSSC[C@@H](C(=O)N[C@@H](CCCNC(=N)N)C(=O)NCC(=O)N[C@@H](CCCNC(=N)N)C(N)=O)NC(=O)[C@H](Cc2ccc(O)cc2)NC(=O)[C@H]([C@@H](C)O)NC(=O)[C@H](C(C)C)NC(=O)[C@@H]2CSSC[C@H](NC1=O)C(=O)N[C@@H](Cc1ccc(O)cc1)C(=O)N[C@@H](CCCCN)C(=O)N[C@@H](CCCNC(=N)N)C(=O)N[C@@H](CCCNC(=N)N)C(=O)N2 [AgGomKR] ([pGlu]CRRLCYKRRCVTYCRGR-NH2; disulfide 2-15, 6-11)
anti-proliferative / cytotoxic activity compared with AgGom (DFTD4 cells [1]): higher anti-proliferative activity than AgGom | deleterious effects on FIBS viability (FIBS cells): minimal deleterious effects

CC(C)C[C@@H]1NC(=O)[C@H](CCCNC(=N)N)NC(=O)[C@H](CCCNC(=N)N)NC(=O)[C@@H](NC(=O)[C@@H]2CCC(=O)N2)CSSC[C@@H](C(=O)N[C@@H](CCCNC(=N)N)C(=O)NCC(=O)N[C@@H](CCCNC(=N)N)C(N)=O)NC(=O)[C@H](Cc2ccc(O)cc2)NC(=O)[C@H]([C@@H](C)O)NC(=O)[C@H](C(C)C)NC(=O)[C@@H]2CSSC[C@H](NC1=O)C(=O)N[C@@H](Cc1ccc(O)cc1)C(=O)N[C@@H](CCCNC(=N)N)C(=O)N[C@@H](CC(N)=O)C(=O)N[C@@H](CCCNC(=N)N)C(=O)N2 [HiGom] ([pGlu]CRRLCYRNRCVTYCRGR-NH2; disulfide 2-15, 6-11)
cell viability / anti-proliferative activity in DFTD4 cells (DFTD4 cells [1]): dramatically reduced the cell viability | anti-proliferative / cytotoxic activity compared with AgGom (DFTD4 cells [1]): more cytotoxic than AgGom | deleterious effects on FIBS viability (FIBS cells): not statistically significant | effects on FIBS viability (FIBS cells; 0.5 to 25 µg/mL): negligible effects | G0/G1 (DFTD4 cells [2]): 47.2 ± 0.66 | G2/M (DFTD4 cells [2]): 13.3 ± 0.7 | S-phase (DFTD4 cells [2]): 13.7 ± 1.9 | early or late apoptotic cell ratio (DFTD4 cells [3]; 50 µg/mL): not altered | necrosis of DFTD cells compared to untreated cells (DFTD4 cells [3]; 50 µg/mL): significantly increased necrosis | expression of BCL2 (DFTD4 cells [4]): enhanced | expression of p53 (DFTD4 cells [4]): enhanced | p27 expression (DFTD4 cells [4]): elevated | ROS (DFTD4 cells [5]): significant increase in ROS | MMP (DFTD4 cells [6]): significant decrease in MMP

CC[C@H](C)[C@@H]1NC(=O)[C@H](CCCNC(=N)N)NC(=O)[C@H](CCCNC(=N)N)NC(=O)[C@@H](NC(=O)[C@@H]2CCC(=O)N2)CSSC[C@@H](C(=O)N[C@@H](CCCNC(=N)N)C(=O)NCC(=O)N[C@@H](CCCNC(=N)N)C(N)=O)NC(=O)[C@H](Cc2ccc(O)cc2)NC(=O)[C@H]([C@@H](C)O)NC(=O)[C@H](Cc2ccccc2)NC(=O)[C@@H]2CSSC[C@H](NC1=O)C(=O)NCC(=O)N[C@@H](CCCNC(=N)N)C(=O)N[C@@H](CCCNC(=N)N)C(=O)N[C@@H](CCCNC(=N)N)C(=O)N2 [SpGom] ([pGlu]CRRICGRRRCFTYCRGR-NH2; disulfide 2-15, 6-11)
anti-proliferative / cytotoxic activity compared with AgGom (DFTD4 cells [1]): higher anti-proliferative activity than AgGom | deleterious effects on FIBS viability (FIBS cells): minimal deleterious effects

CC[C@@]1(O)C(=O)OCc2c1cc1n(c2=O)Cc2cc3ccccc3nc2-1 [camptothecin, reference compound]
late apoptosis (DFTD4 cells [3]; 10 µM, positive control): > 30%

N.N.O=C([O-])C1(C(=O)[O-])CCC1.[Pt+2] [carboplatin]
outcome of trials to treat DFTD (DFTD): unsuccessful

COc1cccc2c1C(=O)c1c(O)c3c(c(O)c1C2=O)C[C@@](O)(C(=O)CO)C[C@@H]3O[C@H]1C[C@H](N)[C@H](O)[C@H](C)O1 [doxorubicin]
outcome of trials to treat DFTD (DFTD): unsuccessful

CC[C@]1(O)C[C@H]2CN(CCc3c([nH]c4ccccc34)[C@@](C(=O)OC)(c3cc4c(cc3OC)N(C=O)[C@H]3[C@@](O)(C(=O)OC)[C@H](OC(C)=O)[C@]5(CC)C=CCN6CC[C@]43[C@@H]65)C2)C1 [vincristine]
outcome of trials to treat DFTD (DFTD): unsuccessful

ZCARLCYKQRCVTYCRGR-NH2 (bicyclic or more) [AgGomR3A, AgGom analogue R3A]
cell viability / anti-proliferative activity in DFTD4 cells (DFTD4 cells [1]): eradicated the anti-proliferative activity

ZCRRACYKQRCVTYCRGR-NH2 (bicyclic or more) [AgGomL5A, AgGom analogue L5A]
cell viability / anti-proliferative activity in DFTD4 cells (DFTD4 cells [1]): eradicated the anti-proliferative activity

ZCRRLCYKQRCATYCRGR-NH2 (bicyclic or more) [AgGomV12A, AgGom analogue V12A]
cell viability / anti-proliferative activity in DFTD4 cells (DFTD4 cells [1]): eradicated the anti-proliferative activity
